Some test systems named below: A498 renal; DU-145 prostate; HCC-2998 colon; NCI/ADR-RES ovarian; OVCAR-3 ovarian; OVCAR-4 ovarian; RPMI-8226 leukemia; SNB-19 CNS; SW-620 colon; UACC-62 melanoma.
Holding throughout (test): inhibition of tumour cell growth, NCI panel, 48 h

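All cell lines were grown in 96-well plates and treated with compound for 48 hours. GI50 = concentration required for 50% inhibition of growth. The concentration for full growth arrest is given as TGI.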 A value given as a limit tells only on which side of the number the result lay.

Turning to `COc1cc2cc(Oc3ccc(NC(=O)Nc4ccc(Cl)c(Cl)c4)cc3)c(C)nc2cc1OC`, the GI50 is 1.95 µM in the test on A498 renal; 4.27 µM in the test on DU-145 prostate; 5.54 µM with HCC-2998 colon; 2.6 µM in the test on NCI/ADR-RES ovarian; 2.34 µM in the test on OVCAR-3 ovarian; 2.67 µM in the test on OVCAR-4 ovarian. In addition, the GI50 is 1.62 µM in the test with RPMI-8226 leukemia, 4.26 µM in the test on SNB-19 CNS, 4.24 µM in the test on SW-620 colon and 3.33 µM in the test on UACC-62 melanoma. Also, the TGI in the test on A498 renal is 7.93 µM; in the test on DU-145 prostate it was 17.1 µM; with HCC-2998 colon it was above 100 µM; with NCI/ADR-RES ovarian, 16.9 µM; with OVCAR-3 ovarian, 6.19 µM; in the test on OVCAR-4 ovarian it was 8.3 µM. Moreover, the TGI worked out at 5.73 µM in the test on RPMI-8226 leukemia, 24 µM in the test with SNB-19 CNS, 15.6 µM in the test with SW-620 colon and 19.2 µM with UACC-62 melanoma.

Regarding `O=C1Cc2cc(C(=O)NC3C[C@H]4CC[C@@H](C3)N4S(=O)(=O)CC3CCN(CCCC(F)(F)F)CC3)c(Cl)cc2N1` (stereo not given in full), the GI50 in the test with A498 renal, in the test with DU-145 prostate, in the test with HCC-2998 colon, in the test with NCI/ADR-RES ovarian, in the test with OVCAR-3 ovarian and in the test on OVCAR-4 ovarian was above 100 µM in each case. Further, the GI50 in the test with RPMI-8226 leukemia, in the test on SNB-19 CNS, in the test on SW-620 colon and in the test on UACC-62 melanoma was above 100 µM in each case. Moreover, the TGI with A498 renal, in the test on DU-145 prostate, in the test with HCC-2998 colon, in the test with NCI/ADR-RES ovarian, with OVCAR-3 ovarian and in the test on OVCAR-4 ovarian was above 100 µM throughout. In addition, the TGI in the test on RPMI-8226 leukemia, with SNB-19 CNS, in the test on SW-620 colon and in the test on UACC-62 melanoma was above 100 µM in each case.

With `O=S(=O)(c1cnccc1N1CCN(CCO)CC1)N1CCCC1`, the TGI with A498 renal, in the test with DU-145 prostate, in the test with HCC-2998 colon, with NCI/ADR-RES ovarian, with OVCAR-3 ovarian and in the test on OVCAR-4 ovarian was above 100 µM throughout. The TGI in the test with RPMI-8226 leukemia, with SNB-19 CNS, in the test on SW-620 colon and with UACC-62 melanoma was above 100 µM in each case.

For the molecule `O=C1NC(=NCCCc2ccccc2)S/C1=C\c1ccc2ncccc2c1`, the GI50 in the test on A498 renal was 3.81 µM; in the test with DU-145 prostate, 5.89 µM; in the test on HCC-2998 colon, 8.09 µM; in the test on NCI/ADR-RES ovarian, 6.5 µM; with OVCAR-3 ovarian, 4.81 µM; in the test with OVCAR-4 ovarian, 3.72 µM. Moreover, the GI50 was 5.52 µM in the test on RPMI-8226 leukemia, 3.69 µM in the test on SNB-19 CNS, 6.37 µM with SW-620 colon and 4.65 µM in the test with UACC-62 melanoma. For the same molecule, the TGI in the test with A498 renal was 8.09 µM; in the test on DU-145 prostate, 18 µM; with HCC-2998 colon, above 25 µM; with NCI/ADR-RES ovarian it was 17.1 µM; in the test with OVCAR-3 ovarian it was 10.6 µM; in the test with OVCAR-4 ovarian, 13.6 µM. Besides, the TGI in the test with RPMI-8226 leukemia is 14.6 µM; with SNB-19 CNS, above 22.4 µM; with SW-620 colon it was above 21.5 µM; in the test on UACC-62 melanoma, 10.9 µM.

The values are drawn from PubChem BioAssay (NCI).
